Assay results from patent US11000708B2 (priority 2015, dated 2021).
Read-outs that look alike come from different tables or passages of the source.

Columns and labels:
[1] = test system: Mycobacterium tuberculosis; details: against Mycobacterium tuberculosis; reported domestically; cited from earlier work
[2] = test system: M. tuberculosis H37Rv (ATCC 27294); details: reported abroad; cited from earlier work
[3] = test system: sensitive Mycobacterium tuberculosis; details: reported domestically; cited from earlier work
[4] = test system: drug-resistant bacteria; details: reported domestically; cited from earlier work
[5] = test system: Mycobacterium tuberculosis standard strains H37Rv; details: quality control H37Rv

Compound: CC[C@H]1OC(=O)[C@H](C)[C@@H](O[C@H]2C[C@@](C)(OC)[C@@H](O)[C@H](C)O2)[C@H](C)[C@@H](O[C@@H]2O[C@H](C)C[C@H](N(C)C)[C@H]2O)[C@](C)(O)C[C@@H](C)CN(C)[C@H](C)[C@@H](O)[C@]1(C)O [azithromycin]
- MIC [1]: 128 micrograms/milliliter
- MIC [2]: 95 micrograms/milliliter

Compound: CC[C@H]1OC(=O)[C@H](C)[C@@H](O[C@H]2C[C@@](C)(OC)[C@@H](O)[C@H](C)O2)[C@H](C)[C@@H](O[C@@H]2O[C@H](C)C[C@H](N(C)C)[C@H]2O)[C@](C)(OC)C[C@@H](C)C(=O)[C@H](C)[C@@H](O)[C@]1(C)O [clarithromycin]
- MIC [3]: 0.25-2.0 micrograms/milliliter
- MIC [4]: 2.0-32 micrograms/milliliter
- MIC [2]: 6 micrograms/milliliter

Compound: CC[C@H]1OC(=O)[C@H](C)[C@@H](O[C@H]2C[C@@](C)(OC)[C@@H](O)[C@H](C)O2)[C@H](C)[C@@H](O[C@@H]2O[C@H](C)C[C@H](N(C)C)[C@H]2O)[C@](C)(O)C[C@@H](C)/C(=N\OCOCCOC)[C@H](C)[C@@H](O)[C@]1(C)O [roxithromycin]
- MIC [2]: greater than or equal to 64 micrograms/milliliter

Compound: CC[C@H]1OC(=O)C[C@@H](O)[C@H](C)[C@@H](O[C@@H]2O[C@H](C)[C@@H](O[C@H]3C[C@@](C)(O)[C@@H](O)[C@H](C)O3)[C@H](N(C)C)[C@H]2O)[C@@H](CC=O)C[C@@H](C)C(=O)/C=C/C(C)=C/[C@@H]1CO[C@@H]1O[C@H](C)[C@@H](O)[C@@H](OC)[C@H]1OC [tylosin]
- MIC [2]: 58.6 micrograms/milliliter

Compound: carrimycin
- growth of bacterial colonies on drug-containing culture medium ([5]; carrimycin 1 μg/ml): 4+ (positive (4+) if the bacterial colonies closely grow on the slant face of the culture medium and account for ¾ or more of the area of the slant face)
- growth of bacterial colonies on drug-containing culture medium ([5]; carrimycin 20 μg/ml): −
